# Laboratory results: patent US20220144853A1, “IMIDAZOLINE DERIVATIVES AS CXCR4 MODULATORS” (Université de Paris, priority 2019, published 2022)
# Counter-ions that a name gives are not always drawn.
row,melting point,Compound
1,150 to 154 °C,"CCCCC1CN=C(SCC2=CSC3=NC(Cc4ccccc4)CN23)N1 (stereo not drawn) (as salt: hydrochloride) [Example 51, 6-benzyl-3-(((5-butyl-4,5-dihydro-1H-imidazol-2-yl)thio)methyl)-5,6-dihydroinidazo[2,1-b]thiazole dihydrochloride]"
2,227 to 232 °C,"CC(C)C1CN2C(CSC3=NCC(C)(C)N3)=CSC2=N1 (stereo not drawn) (as salt: hydrochloride) [Example 52, 3-(((5,5-dimethyl-4,5-dihydro-1H-imidazol-2-yl)thio)methyl)-6-isopropyl-5,6-dihydroimidazo[2,1-b]thiazole dihydrochloride]"
3,110 to 120 °C,"CC1(C)CN2C(CSC3=NCC(c4ccccc4)N3)=CSC2=N1 (stereo not drawn) (as salt: hydrochloride) [Example 53, 6,6-dimethyl-3-(((4-phenyl-4,5-dihydro-1H-imidazol-2-yl)thio)methyl)-5,6-dihydroimidazo[2,1-b]thiazole dihydrochloride]"
4,245 to 249 °C,"CN1CCCN=C1SCC1=CSC2=NC(C)(C)CN12 (as salt: hydrochloride) [Example 57, 6,6-dimethyl-3-(((1-methyl-1,4,5,6-tetrahydropyrimidin-2-yl)thio)methyl)-5,6-dihydroimidazo[2,1-b]thiazole dihydrochloride]"
5,154 to 160 °C,"CC(C)[C@@H]1N=C(SCC2=CSC3=NC(C)(C)CN23)N[C@H]1C(C)C (as salt: hydrochloride) [Example 58, 3-((((4S,5S)-4,5-diisopropyl-4,5-dihydro-1H-imidazol-2-yl)thio)methyl)-6,6-dimethyl-5,6-dihydroimidazo[2,1-b]thiazole dihydrochloride]"
6,117 to 121 °C,"C1=C(CSC2=NCC(Cc3ccccc3)N2)N2CC(Cc3ccccc3)N=C2S1 (stereo not drawn) (as salt: hydrochloride) [Example 60, 6-benzyl-3-(((5-benzyl-4,5-dihydro-1H-imidazol-2-yl)thio)methyl)-5,6-dihydroimidazo[2,1-b]thiazole dihydrochloride]"
7,125 to 130 °C,"C1=C(CSC2=N[C@@H]3CCCC[C@H]3N2)N2CC(Cc3ccccc3)N=C2S1 (stereo partly drawn) (as salt: hydrochloride) [Example 61, 6-benzyl-3-((((3aR,7aR)-3a,4,5,6,7,7a-hexahydro-1H-benzo[d]imidazol-2-yl)thio)methyl)-5,6-dihydroimidazo[2,1-b]thiazole dihydrochloride]"
8,169 to 180 °C (dec.),"CC1(C)CN2C(=N1)SC(I)=C2CSC1=NCC(C)(C)N1 (as salt: hydrochloride) [Example 66, 3-(((5,5-dimethyl-4,5-dihydro-1H-imidazol-2-yl)thio)methyl)-2-iodo-6,6-dimethyl-5,6-dihydroimidazo[2,1-b]thiazole dihydrochloride]"
9,240 to 243 °C,"CC1(C)CN2C(=N1)SCC2SC1=NCC(C)(C)N1 (stereo not drawn) (as salt: hydrochloride) [Example 70, 3-((5,5-dimethyl-4,5-dihydro-1H-imidazol-2-yl)thio)-6,6-dimethyl-2,3,5,6-tetrahydroimidazo[2,1-b]thiazole dihydrochloride]"
10,> 250 °C,"C1=C(CSC2=N[C@H]3COC[C@H]3N2)N2C(=N[C@@H]3COC[C@@H]32)S1 (mixture of isomers) (as salt: hydrochloride) [Example 36, mixture of (4aS,7aR)-3-((((3aS,6aR)-3a,4,6,6a-tetrahydro-1H-furo[3,4-d]imidazol-2-yl)thio)methyl)-4a,5,7,7a-tetrahydrofuro[3′,4′:4,5]imidazo[2,1-b]thiazole dihydrochloride and (4aR,7aS)-3-((((3aR,6aS)-3a,4,6,6a-tetrahydro-1H-furo[3,4-d]imidazol-2-yl)thio)methyl)-4a,5,7,7a-tetrahydrofuro[3′,4′: 4,5]imidazo[2,1-b]thiazole dihydrochloride]"
11,248 to 252 °C,"CC1(C)CN=C(SCC2=CSC3=N[C@H]4CCCC[C@@H]4N23)N1 (racemic) (as salt: hydrochloride) [Example 7, trans-3-(((4,4-dimethyl-4,5-dihydro-1H-imidazol-2-yl)thio)methyl)-4a,5,6,7,8,8a-hexahydrobenzo[4,5]imidazo[2,1-b]thiazole dihydrochloride]"
12,210 to 215 °C,"CC1(C)CN=C(SCC2=CSC3=N[C@H]4CCCC[C@H]4N23)N1 (racemic) (as salt: hydrochloride) [Example 10, cis-3-(((4,4-dimethyl-4,5-dihydro-1H-imidazol-2-yl)thio)methyl)-4a,5,6,7,8,8a-hexahydrobenzo[4,5]imidazo[2,1-b]thiazole dihydrochloride]"
13,240 to 245 °C,"CC1(C)CN=C(SCC2=CSC3=N[C@H]4CCCC(C4)N23)N1 (racemic) (as salt: hydrochloride) [Example 23, cis-3-(((5,5-dimethyl-4,5-dihydro-1H-imidazol-2-yl)thio)methyl)-6,7,8,9-tetrahydro-5H-5,9-methanothiazolo[3,2-a][1,3]diazocine dihydrochloride]"
14,226 to 230 °C,"CCCCC1CN=C(SCC2=CSC3=N[C@H]4CCCCC4N23)N1 (mixture of isomers) (as salt: hydrochloride) [Example 54, trans-3-(((5-butyl-4,5-dihydro-1H-imidazol-2-yl)thio)methyl)-4a,5,6,7,8,8a-hexahydrobenzo[4,5]imidazo[2,1-b]thiazole dihydrochloride]"
15,137 to 142 °C,"C1=C(CSC2=NCC(Cc3ccccc3)N2)N2C(=N[C@H]3CCCCC32)S1 (mixture of isomers) (as salt: hydrochloride) [Example 55, trans-3-(((5-benzyl-4,5-dihydro-1H-imidazol-2-yl)thio)methyl)-4a,5,6,7,8,8a-hexahydrobenzo[4,5]imidazo[2,1-b]thiazole dihydrochloride]"
16,115 to 120 °C,"C1=C(CSC2=NCCN2)N2C(=N[C@H]3CCCCC32)S1 (mixture of isomers) (as salt: hydrochloride) [Example 59, trans-3-(((4,5-dihydro-1H-imidazol-2-yl)thio)methyl)-4a,5,6,7,8,8a-hexahydrobenzo[4,5]imidazo[2,1-b]thiazole dihydrochloride]"
17,237 to 241 °C,"CC(C)[C@@H]1N=C2SC=C(CSC3=NCC(C)(C)N3)N2[C@H]1C(C)C (racemic) (as salt: hydrochloride) [Example 62, trans-3-(((5,5-dimethyl-4,5-dihydro-1H-imidazol-2-yl)thio)methyl)-5,6-diisopropyl-5,6-dihydroimidazo[2,1-b]thiazole dihydrochloride]"
18,204 to 207 °C,"CN1CCN=C1SCC1=CSC2=NC3CCCCC3N12 (racemic) (as salt: hydrochloride) [Example 63, trans-3-(((1-methyl-4,5-dihydro-1H-imidazol-2-yl)thio)methyl)-4a,5,6,7,8,8a-hexahydrobenzo[4,5]imidazo[2,1-b]thiazole dihydrochloride]"
